Test results from PubChem BioAssay (NCI).
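Protocol summary: plate cells (96-well), add compound at 5 concentrations, incubate 48 h, interpolate endpoints linearly. TGI marks complete inhibition of growth.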

Columns and labels:
Experiment in all cases: growth of human tumour cells (NCI), 48 h
[1] = tested on: SK-MEL-2 melanoma
[2] = tested on: DU-145 prostate
[3] = tested on: K-562 leukemia
[4] = tested on: RPMI-8226 leukemia
[5] = tested on: MALME-3M melanoma
[6] = tested on: NCI-H23 lung
[7] = tested on: KM12 colon
[8] = tested on: NCI-H226 lung
[9] = tested on: SF-268 CNS
[10] = tested on: RXF 393 renal
[11] = tested on: COLO 205 colon
[12] = tested on: SK-MEL-28 melanoma
[13] = tested on: CCRF-CEM leukemia
[14] = tested on: NCI-H522 lung
[15] = tested on: HOP-92 NSCLC
[16] = tested on: NCI/ADR-RES ovarian
[17] = tested on: IGROV1 ovarian
[18] = tested on: UO-31 renal
[19] = tested on: HCT-116 colon
[20] = tested on: HL-60(TB) leukemia
[21] = tested on: U251 CNS
[22] = tested on: CAKI-1 renal
[23] = tested on: MCF7 breast
[24] = tested on: HS 578T breast
[25] = tested on: A549 NSCLC
[26] = tested on: M14 melanoma
[27] = tested on: ACHN renal
[28] = tested on: HOP-62 NSCLC
[29] = tested on: EKVX NSCLC
[30] = tested on: 786-0 renal
[31] = tested on: HCC-2998 colon
[32] = tested on: MDA-MB-231 breast
[33] = tested on: TK-10 renal
[34] = tested on: SN12C renal
[35] = tested on: SK-MEL-5 melanoma
[36] = tested on: OVCAR-3 ovarian
[37] = tested on: LOX IMVI melanoma
[38] = tested on: A498 renal
[39] = tested on: OVCAR-8 ovarian
[40] = tested on: MOLT-4 leukemia
[41] = tested on: SW-620 colon
[42] = tested on: BT-549 breast
[43] = tested on: SNB-75 CNS
[44] = tested on: OVCAR-4 ovarian
[45] = tested on: NCI-H460 lung
[46] = tested on: MDA-MB-435
[47] = tested on: UACC-257 melanoma
[48] = tested on: SNB-19 CNS
[49] = tested on: SR leukemia
[50] = tested on: HT29 colon
[51] = tested on: SF-539 CNS
[52] = tested on: SF-295 CNS
[53] = tested on: T-47D breast
[54] = tested on: MDA-N

Measured: TGI

CC(=O)Oc1ccc2oc(=O)cc(C)c2c1
> 100 µM: all assays above
